The values that follow come from patent US20070027150A1 (priority 2005, published 2007).

Some results are limits rather than exact numbers.

In one assay the target is His-tagged N-terminal ATP binding domain (amino acid residues 9-236) of HSP90α (Homo sapiens, UniProt P07900). Briefly: HSP90 inhibitor binding potency: TRF competition binding assay. The settings on record: Table I; read-out: Hsp90 IC50 Range. In a few lines:
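Competition against biotinylated radicicol for binding to the His-tagged 9-236 ATP domain of HSP90α: 2 h, room temperature, HEPES/MgCl2/KCl/BSA buffer. Streptavidin capture, then europium-labeled anti-His antibody and enhancement solution; europium counts give IC50.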
As for `Cc1nc(N)nc2c1C(=O)CC(c1ccccc1C1=CCCC1)C2` (stereo not shown) [Compound 40, 2-amino-7-(2-cyclopent-1-en-1-ylphenyl)-4-methyl-7,8-dihydroquinazolin-5(6H)-one], the IC50 (commonly the midpoint of a concentration-inhibition curve) is under 1000 nM.

Turning to `Cc1nc(N)nc2c1C(=O)CC(c1cccnc1-c1ccccn1)C2` (stereo not shown) [Compound 33, 2-amino-7-(2,2′-bipyridin-3-yl)-4-methyl-7,8-dihydroquinazolin-5(6H)-one], the IC50 is 1000 to 10000 nM.

For `Cc1nc(N)nc2c1C(=O)CC(c1nccn1Cc1ccccc1)C2` (stereo not shown) [Compound 9, 2-amino-7-(1-benzyl-1H-imidazol-2-yl)-4-methyl-7,8-dihydro-6H-quinazolin-5-one], the IC50 was under 1000 nM.

Regarding `Cc1nc(N)nc2c1C(=O)CC(c1ccccc1-c1cccc(C(F)(F)F)c1)C2` (stereo not shown) [Compound 110, 2-amino-4-methyl-7-[3′-(trifluoromethyl)-1,1′-biphenyl-2-yl]-7,8-dihydroquinazolin-5(6H)-one], the IC50 fell in the range of 1000 to 10000 nM.

Take `Cc1nc(N)nc2c1C(=O)CC(c1c(OCCN3CCCCC3)cccc1-c1cccnc1F)C2` (stereo not shown) [Compound 155, 2-amino-7-[2-(2-fluoro-pyridin-3-yl)-6-(2-piperidin-1-yl-ethoxy)-phenyl]-4-methyl-7,8-dihydro-6H-quinazolin-5-one]: the 50% inhibitory concentration (IC50) is under 1000 nM.

As to `COc1cccc(-c2cccnc2F)c1C1CC(=O)c2c(C)nc(N)nc2C1` (stereo not shown) [Compound 97, 2-amino-7-[2-(2-fluoropyridin-3-yl)-6-methoxyphenyl]-4-methyl-7,8-dihydroquinazolin-5(6H)-one], the IC50 was under 1000 nM.

As for `Cc1nc(N)nc2c1C(=O)CC(c1ccccc1-c1cn[nH]c1)C2` (stereo not shown) [Compound 39, 2-amino-4-methyl-7-[2-(1H-pyrazol-4-yl)phenyl]-7,8-dihydroquinazolin-5(6H)-one], the half-inhibitory concentration (IC50) was in the range of 1000 to 10000 nM.

Regarding `Cc1nc(N)nc2c1C(=O)CC(c1ccccc1OC1CCCC1)C2` (stereo not shown) [Compound 150, 2-amino-7-(2-cyclopentyloxy-phenyl)-4-methyl-7,8-dihydro-6H-quinazolin-5-one], the IC50 was under 1000 nM.

In the case of `COC(=O)c1ccccc1C1CC(=O)c2c(C)nc(N)nc2C1` (stereo not shown) [Compound 165, methyl 2-(2-amino-4-methyl-5-oxo-5,6,7,8-tetrahydroquinazolin-7-yl)benzoate], the IC50 was under 1000 nM.

Consider `COc1cccc(C2CCCCC2)c1C1CC(=O)c2c(C)nc(N)nc2C1` (stereo not shown) [Compound 20, 2-amino-7-(2-cyclohexyl-6-methoxyphenyl)-4-methyl-7,8-dihydroquinazolin-5(6H)-one], for which the half-inhibitory concentration (IC50) was over 10000 nM.

Turning to `Cc1nc(N)nc2c1C(=O)CC(c1ccccc1-c1ccnc(Cl)c1)C2` (stereo not shown) [Compound 82, 2-amino-7-[2-(2-chloropyridin-4-yl)phenyl]-4-methyl-7,8-dihydroquinazolin-5(6H)-one], the concentration for half-maximal inhibition (IC50) was 1000 to 10000 nM.

Still in this assay, the particulars now being: Table II; read-out: Hsp90 IC50 Range.
On to `Cc1nc(N)nc2c1C(=O)CC(c1c(F)cccc1Br)C2` (stereo not shown) [Compound 236, 2-amino-7-(2-bromo-6-fluoro-phenyl)-4-methyl-7,8-dihydro-6H-quinazolin-5-one], for which the concentration for half-maximal inhibition (IC50) is 1000 to 10000 nM.

Take `COc1nc(-c2cc(F)ccc2C2CC(=O)c3c(C)nc(N)nc3C2)ncc1C` (stereo not shown) [Compound 259, 2-amino-7-[4-fluoro-2-(4-methoxy-5-methyl-pyrimidin-2-yl)-phenyl]-4-methyl-7,8-dihydro-6H-quinazolin-5-one]: the IC50 was under 1000 nM.

As for `Cc1nc(N)nc2c1C(=O)CC(c1ccccc1)C2C` (stereo not shown) [Compound 247, 2-amino-4,8-dimethyl-7-phenyl-7,8-dihydro-6H-quinazolin-5-one], the half-maximal inhibitory concentration (IC50) is 1000 to 10000 nM.

Regarding `CCc1nc(N)nc2c1C(=O)CC(c1ccc(F)cc1-c1cccc(OC)n1)C2` (stereo not shown) [Compound 316, 2-amino-4-ethyl-7-[4-fluoro-2-(6-methoxy-pyridin-2-yl)-phenyl]-7,8-dihydro-6H-quinazolin-5-one], the 50% inhibitory concentration (IC50) is under 1000 nM.

`CCc1nc(N)nc2c1C(=O)CC(c1ccc(F)cc1-c1cnc(N)c(OC)n1)C2` (stereo not shown) [Compound 335, 2-amino-7-[2-(5-amino-6-methoxy-pyrazin-2-yl)-4-fluoro-phenyl]-4-ethyl-7,8-dihydro-6H-quinazolin-5-one]: the IC50 was under 1000 nM.

Turning to `CCc1nc(N)nc2c1C(=O)CC(c1ccc(F)cc1-c1cccnc1)C2` (stereo not shown) [Compound 318, 2-amino-4-ethyl-7-(4-fluoro-2-pyridin-3-yl-phenyl)-7,8-dihydro-6H-quinazolin-5-one], the IC50 is under 1000 nM.

In the case of `Cc1nc(N)nc2c1C(=O)CC(c1ncccc1OC1CCCC1)C2` (stereo not shown) [Compound 177, 2-amino-7-(3-cyclopentyloxy-pyridin-2-yl)-4-methyl-7,8-dihydro-6H-quinazolin-5-one], the IC50 was under 1000 nM.

Consider `Cc1nc(N)nc2c1C(=O)CC(c1ccccc1)C2NC(=O)c1ccccc1` (stereo not shown) [Compound 242, N-(2-amino-4-methyl-5-oxo-7-phenyl-5,6,7,8-tetrahydro-quinazolin-8-yl)-benzamide], for which the 50% inhibitory concentration (IC50) is over 10000 nM.

For the molecule `COc1nc(-c2cc(F)ccc2[C@@H]2CC(=O)c3c(C)nc(N)nc3C2)ncc1Cl` [Compound 300, (S)-2-amino-7-[2-(5-chloro-4-methoxy-pyrimidin-2-yl)-4-fluoro-phenyl]-4-methyl-7,8-dihydro-6H-quinazolin-5-one], the concentration for half-maximal inhibition (IC50) is under 1000 nM.

Turning to `Cc1nc(N)nc2c1C(=O)CC(c1ccc(F)cc1OCCC1CC1)C2` (stereo not shown) [Compound 262, 2-amino-7-[2-(2-cyclopropyl-ethoxy)-4-fluoro-phenyl]-4-methyl-7,8-dihydro-6H-quinazolin-5-one], the IC50 was under 1000 nM.

`CCc1ccccc1-n1ccnc1C1CC(=O)c2c(C)nc(N)nc2C1` (stereo not shown) [Compound 195, 2-amino-7-[1-(2-ethyl-phenyl)-1H-imidazol-2-yl]-4-methyl-7,8-dihydro-6H-quinazolin-5-one]: the half-inhibitory concentration (IC50) was under 1000 nM.

Consider `COc1cccc(-c2scnc2[C@H]2CC(=O)c3c(C)nc(N)nc3C2)n1` [Compound 297, (R)-2-amino-7-[5-(6-methoxy-pyridin-2-yl)-thiazol-4-yl]-4-methyl-7,8-dihydro-6H-quinazolin-5-one], for which the IC50 was 1000 to 10000 nM.

Take `CCC(CC)Oc1cc(F)ccc1C1CC(=O)c2c(C)nc(N)nc2C1` (stereo not shown) [Compound 267, 2-amino-7-[2-(1-ethyl-propoxy)-4-fluoro-phenyl]-4-methyl-7,8-dihydro-6H-quinazolin-5-one]: the IC50 is under 1000 nM.

As for `COc1cnc(-c2cc(F)ccc2[C@@H]2CC(=O)c3c(C)nc(N)nc3C2)nc1OC` [Compound 288, (S)-2-amino-7-[2-(4,5-dimethoxy-pyrimidin-2-yl)-4-fluoro-phenyl]-4-methyl-7,8-dihydro-6H-quinazolin-5-one], the IC50 was under 1000 nM.

`Cc1nc(N)nc2c1C(=O)CC(c1ccc(F)cc1OC1CCCC1)C2` (stereo not shown) [Compound 181, 2-amino-7-(2-cyclopentyloxy-4-fluoro-phenyl)-4-methyl-7,8-dihydro-6H-quinazolin-5-one]: the IC50 was under 1000 nM.

`COc1cccc(-n2ccnc2[C@H]2CC(=O)c3c(C)nc(N)nc3C2)n1` [Compound 203, (R)-2-amino-7-[1-(6-methoxy-pyridin-2-yl)-1H-imidazol-2-yl]-4-methyl-7,8-dihydro-6H-quinazolin-5-one]: the 50% inhibitory concentration (IC50) was in the range of 1000 to 10000 nM.

Turning to `COc1nc(-c2cc(F)ccc2[C@@H]2CC(=O)c3c(C)nc(N)nc3C2)cnc1C` [Compound 332, (S)-2-amino-7-[4-fluoro-2-(6-methoxy-5-methyl-pyrazin-2-yl)-phenyl]-4-methyl-7,8-dihydro-6H-quinazolin-5-one], the IC50 was under 1000 nM.

With `COc1cncc(-c2cccc(F)c2C2CC(=O)c3c(C)nc(N)nc3C2)n1` (stereo not shown) [Compound 240, 2-amino-7-[2-fluoro-6-(6-methoxy-pyrazin-2-yl)-phenyl]-4-methyl-7,8-dihydro-6H-quinazolin-5-one], the IC50 lay in the range of 1000 to 10000 nM.

`Cc1nc(N)nc2c1C(=O)CC(c1ccc(F)cc1-c1cncc(Cl)n1)C2` (stereo not shown) [Compound 219, 2-amino-7-[2-(6-chloro-pyrazin-2-yl)-4-fluoro-phenyl]-4-methyl-7,8-dihydro-6H-quinazolin-5-one]: the half-maximal inhibitory concentration (IC50) was under 1000 nM.

For the molecule `Cc1cnc(C)c(-c2cc(F)ccc2C2CC(=O)c3c(C)nc(N)nc3C2)n1` (stereo not shown) [Compound 227, 2-amino-7-[2-(3,6-dimethyl-pyrazin-2-yl)-4-fluoro-phenyl]-4-methyl-7,8-dihydro-6H-quinazolin-5-one], the concentration for half-maximal inhibition (IC50) was 1000 to 10000 nM.

On to `COc1cccc(-c2cc(Cl)ccc2C2CC(=O)c3c(C)nc(N)nc3C2)n1` (stereo not shown) [Compound 251, 2-amino-7-[4-chloro-2-(6-methoxy-pyridin-2-yl)-phenyl]-4-methyl-7,8-dihydro-6H-quinazolin-5-one], for which the IC50 was under 1000 nM.

Take `COc1nc(-c2cc(F)ccc2[C@H]2CC(=O)c3c(C)nc(N)nc3C2)ncc1C` [Compound 274, (R)-2-amino-7-[4-fluoro-2-(4-methoxy-5-methyl-pyrimidin-2-yl)-phenyl]-4-methyl-7,8-dihydro-6H-quinazolin-5-one]: the IC50 was under 1000 nM.

For `COc1cccc(-n2cc(C(F)(F)F)nc2C2CC(=O)c3c(C)nc(N)nc3C2)n1` (stereo not shown) [Compound 205, 2-amino-7-[1-(6-methoxy-pyridin-2-yl)-4-trifluoromethyl-1H-imidazol-2-yl]-4-methyl-7,8-dihydro-6H-quinazolin-5-one], the IC50 is under 1000 nM.

As to `Nc1nc(Cc2ccc(F)cc2)c2c(n1)CC(c1ccccc1)CC2=O` (stereo not shown) [Compound 307, 2-amino-4-(4-fluoro-benzyl)-7-phenyl-7,8-dihydro-6H-quinazolin-5-one], the 50% inhibitory concentration (IC50) was in the range of 1000 to 10000 nM.

`COc1cccc(-c2ccccc2C2CC(=O)c3c(nc(N)nc3C(F)(F)F)C2)n1` (stereo not shown) [Compound 216, 2-amino-7-[2-(6-methoxy-pyridin-2-yl)-phenyl]-4-trifluoromethyl-7,8-dihydro-6H-quinazolin-5-one]: the concentration for half-maximal inhibition (IC50) is under 1000 nM.

As to `CCc1nc(N)nc2c1C(=O)CC(c1ccc(F)cc1-c1ccccc1OC)C2` (stereo not shown) [Compound 321, 2-amino-4-ethyl-7-(5-fluoro-2′-methoxy-biphenyl-2-yl)-7,8-dihydro-6H-quinazolin-5-one], the 50% inhibitory concentration (IC50) was in the range of 1000 to 10000 nM.
